# Data: patent publication US7217729B2, “Substituted indoles, process for the production thereof and use thereof for combatting pain” (Grunenthal GmbH, priority 2001, dated 2007)
# Test system: Male NMRI mice
# Assay: phenylquinone-induced writhing in mice (analgesic testing by writhing test)
# Type: in vivo
# Conditions: 10 mg/kg i.v., phenylquinone i.p. 10 minutes after compound, writhing counted 5–20 minutes after phenylquinone
# Protocol: The investigation into the analgesic efficacy of the compounds according to the invention was performed by phenylquinone-induced writhing in mice, modified after I. C. Hendershot, J. Forsaith, J. Pharmacol. Exp. There. 125, 237240 (1959). The corresponding literature description is hereby introduced as a reference and is deemed to be part of the disclosure.
# Male NMRI mice weighing from 25–30 g were used for this purpose. Groups of 10 animals per compound dose received, 10 minutes after intravenous administration of the compounds tested, 0.3 ml/mouse of a 0.02% aqueous solution of phenylquinone (phenylbenzoquinone, Sigma, Deisenhofen; solution prepared with addition of 5% of ethanol and stored in a water bath at 45° C.) administered intraperitoneally. The animals were then placed individually in observation cages. A push button counter was used to record the number of pain-induced stretching movements (writhing reactions=straightening of the torso with stretching of the rear extremities) for 5–20 minutes after phenylquinone administration. The control was provided by animals which received only physiological common salt solution with phenylquinone.
# The compounds according to the invention were tested at the standard dosage of 10 mg/kg. The percentage inhibition (% inhibition) of the writhing reactions by a compound was calculated according to the following formula: […]
# Analgesic Testing by Writhing Test in Mice
# The in-depth investigation into the analgesic efficacy of the compounds according to the invention was performed using phenylquinone-induced writhing in mice, as described above.
row,Compound,% inhibition of writhing reactions [%]
1,"5-Chloro-3-{[3′-(N,N-dimethylaminomethyl)-4′-hydroxy-4′-(3″-methoxyphenyl)-cyclohexylamino]-methyl}-1H-indole 2-carboxylic acid ester [Compound 1]",48
2,"CCOC(=O)c1[nH]c2cc(Cl)cc(Cl)c2c1CNC1CCC(O)(c2cccc(OC)c2)C(CN(C)C)C1 (stereo not shown) [Compound 2, 4,6-Dichloro-3-{[3′-(N,N-dimethylaminomethyl)-4′-hydroxy-4′-(3″-methoxyphenyl)-cyclohexylamino]-methyl}-1H-indole 2-carboxylic acid ethyl ester]",97
3,"COc1cccc(C2(O)CCC(NCc3c(C(=O)O)[nH]c4cc(Cl)cc(Cl)c34)CC2CN(C)C)c1 (stereo not shown) [Compound 3, 4,6-Dichloro-3-{[3′-(N,N-dimethylaminomethyl)-4′-hydroxy-4′-(3″-methoxyphenyl)-cyclohexylamino]-methyl}-1H-indole 2-carboxylic acid]",72
4,CCOC(=O)c1c(CNC2CCC(O)(c3cccc(OC)c3)C(CN(C)C)C2)c2c(Cl)cc(Cl)cc2n1C(=O)OC(C)(C)C (stereo not shown) [Compound 4],100
